Measurements from BindingDB's records for doi:10.1016/s0960-894x(02)00796-5 (Janssen-Cilag, 2002).

Assays:
[1] = Binding affinity against […] adrenergic receptor
[2] = as above; remark: listed apart in the source

Compound | IC50 [1] | IC50 [2]
CN(C)CC1CC2c3ccccc3Cc3ccc(Cl)cc3N2O1 (centres undefined) | 871 nM | –
CN(C)CC1CC2c3ccccc3Cc3ccncc3N2O1 (centres undefined) | – | < 1000 nM
CN(C)CC1CC2c3cccnc3Cc3ccccc3N2O1 (centres undefined) | – | < 1000 nM
CN(C)C[C@@H]1C[C@@H]2c3ccccc3Cc3ccccc3N2O1 [Dimethyl-[(2S,3aR)-1-(2,3,3a,8-tetrahydro-1-oxa-12b-aza-dibenzo[e,h]azulen-2-yl)methyl]-amine] | 1860 nM | –
